{
  "source": "patent US20250136576A1",
  "about": "“Heterocyclic Compounds and Uses Thereof” (ACEA Therapeutics, Inc., priority 2021, published 2025)",
  "data": [
    {"tested_on": "KM12-luc cells", "assay": "Cell proliferation and growth inhibition assay (CCK-8) in KM12-luc", "assay_type": "cell-based", "details": "KM12-Luc, 72 h, KM12-luc cells, treated with test compounds for 72 hrs, CCK-8 viability; read-out: NTRK IC50 in KM12-luc", "method": "MV-4-11 and H1975 cells were obtained from the American Type Culture Collection and KM12-luc cells were obtained from JCRB Cell Bank. All cell lines were maintained at 37° C. with 5% C02, in media supplemented with 10% fetal bovine serum and penicillin (100 units/mL) and streptomycin (100 μg/mL). MV-4-11 cells were maintained in Iscove's Modified Dubecco's Medium, H1975 cells were cultured with RPMI 1640 media, and KM12-luc cells were maintained in Dulbecco's Modification of Eagle's Medium. CCK-8 reagent was obtained from Yeasen. Cell proliferation was assessed by CCK-8 assay (Yeasen) per the manufacturer's instructions. […] Cell viability was assayed by incubating the cells with CCK-8 reagent for 1-4 hrs. Absorbance was measured at OD450 using the Beckman DTX880. The data was calculated using GraphPad Prism version 6.01. The IC50 values were fitted using a non-linear regression model with a sigmoidal dose response.", "units": {"IC50": "µM"}, "values": [
      {"smiles": "COc1cnc(Nc2ccc(N(CCN(C)C)C(C)=O)c(NC(C)=O)c2)nc1-c1c[nH]c2c(F)cccc12", "note": "[Compound 278, N-(2-acetamido-4-((4-(7-fluoro-1H-indol-3-yl)-5-methoxypyrimidin-2-yl)amino)phenyl)-N-(2-(dimethylamino)ethyl)acetamide]", "IC50": 0.0171},
      {"smiles": "CCN(CCN(C)C)c1ccc(Nc2nc(-c3cn(C)c4ccccc34)c3occc3n2)cc1NC(C)=O", "note": "[Compound 256c, N-(2-((2-(dimethylamino)ethyl)(ethyl)amino)-5-((4-(1-methyl-1H-indol-3-yl)furo[3,2-d]pyrimidin-2-yl)amino)phenyl)acetamide]", "IC50": 0.587},
      {"smiles": "CC(=O)Nc1cc(Nc2nc(-c3cn(C)c4cc(F)c(F)cc34)c3cc[nH]c3n2)ccc1N(C)CCN(C)C", "note": "[Compound 237, N-(5-((4-(5,6-difluoro-1-methyl-1H-indol-3-yl)-7H-pyrrolo[2,3-d]pyrimidin-2-yl)amino)-2-((2-(dimethylamino)ethyl)(methyl)amino)phenyl)acetamide]", "IC50": 0.537},
      {"smiles": "CC(=O)Nc1cc(Nc2ncc(C(F)(F)F)c(-c3c[nH]c4ccc(F)cc34)n2)ccc1N(C)CCN(C)C", "note": "[Compound 321, N-(2-((2-(dimethylamino)ethyl)(methyl)amino)-5-((4-(5-fluoro-1H-indol-3-yl)-5-(trifluoromethyl)pyrimidin-2-yl)amino)phenyl)acetamide]", "IC50": 0.0148},
      {"smiles": "CCN(CCN(C)C)c1ccc(Nc2ncc(C(F)(F)F)c(-c3c[nH]c4c(F)cccc34)n2)cc1NC(C)=O", "note": "[Compound 336, N-(2-((2-(dimethylamino)ethyl)(ethyl)amino)-5-((4-(7-fluoro-1H-indol-3-yl)-5-(trifluoromethyl)pyrimidin-2-yl)amino)phenyl)acetamide]", "IC50": 0.0648},
      {"smiles": "CCN(CCN(C)C)c1ccc(Nc2nc(-c3cn(C)c4ccccc34)c3cc[nH]c3n2)cc1F", "note": "[Compound 208, N^1-(2-(dimethylamino)ethyl)-N^1-ethyl-2-fluoro-N^4-(4-(1-methyl-1H-indol-3-yl)-7H-pyrrolo[2,3-d]pyrimidin-2-yl)benzene-1,4-diamine]", "IC50": 0.381},
      {"smiles": "CCN(CCN(C)C)c1ccc(Nc2ncc(C(F)(F)F)c(-c3cn(C)c4ccccc34)n2)cc1NC(C)=O", "note": "[Compound 309, N-(2-((2-(dimethylamino)ethyl)(ethyl)amino)-5-((4-(1-methyl-1H-indol-3-yl)-5-(trifluoromethyl)pyrimidin-2-yl)amino)phenyl)acetamide]", "IC50": 0.135},
      {"smiles": "Cc1nc2cc(Nc3ncc(C(F)(F)F)c(-c4c[nH]c5ccccc45)n3)ccc2n1CCN(C)C", "note": "[Compound 303b, N^1—N-(4-(1H-indol-3-yl)-5-(trifluoromethyl)pyrimidin-2-yl)-1-(2-(dimethylamino)ethyl)-2-methyl-1H-benzo[d]imidazol-5-amine]", "IC50": 0.0643},
      {"smiles": "CCC(=O)Nc1cccc(Nc2ncc(Cl)c(Nc3ccc(N4CCN(C)CC4)cc3OC)n2)c1", "note": "[Compound 161, N-(3-((5-chloro-4-((2-methoxy-4-(4-methylpiperazin-1-yl)phenyl)amino)pyrimidin-2-yl)amino)phenyl)propionamide]", "IC50": 0.146},
      {"smiles": "CCN(C(=O)CN(C)C)c1ccc(Nc2ncc(Cl)c(-c3cn(C)c4ccccc34)n2)cc1NC(C)=O", "note": "[Compound 405, N-(2-acetamido-4-((5-chloro-4-(1-methyl-1H-indol-3-yl)pyrimidin-2-yl)amino)phenyl)-2-(dimethylamino)-N-ethylacetamide]", "IC50": "> 1"},
      {"smiles": "COc1cnc(Nc2ccc(N3CC[C@@H](N(C)C)C3)c(NC(C)=O)c2)nc1-c1c[nH]c2c(F)cccc12", "note": "[Compound R-280, (R)—N-(2-(3-(dimethylamino)pyrrolidin-1-yl)-5-((4-(7-fluoro-1H-indol-3-yl)-5-methoxypyrimidin-2-yl)amino)phenyl)acetamide]", "IC50": 0.0156},
      {"smiles": "COc1cnc(Nc2ccc(OCCN(C)C)c(NC(C)=O)c2)nc1-c1cn(C)c2c(C)cccc12", "note": "[Compound 285, N-(5-((4-(1,7-dimethyl-1H-indol-3-yl)-5-methoxypyrimidin-2-yl)amino)-2-(2-(dimethylamino)ethoxy)phenyl)acetamide]", "IC50": 0.0996},
      {"smiles": "CCN(CCN(C)C)c1ccc(Nc2ncc(C(F)(F)F)c(-c3c[nH]c4cccc(F)c34)n2)cc1NC(C)=O", "note": "[Compound 318, N-(2-((2-(dimethylamino)ethyl)(ethyl)amino)-5-((4-(4-fluoro-1H-indol-3-yl)-5-(trifluoromethyl)pyrimidin-2-yl)amino)phenyl)acetamide]", "IC50": 0.0432},
      {"smiles": "CCN(CCN(C)C)c1ccc(Nc2ncc(Cl)c(-c3cn(C)c4ccccc34)n2)cc1NC(C)=O", "note": "[Compound 397, N-(5-((5-chloro-4-(1-methyl-1H-indol-3-yl)pyrimidin-2-yl)amino)-2-((2-(dimethylamino)ethyl)(ethyl)amino)phenyl)acetamide]", "IC50": 0.18},
      {"smiles": "CN(C)CCN(C)c1ccc(C(=O)Nc2c[nH]c3ccc(Nc4cc(F)cc(F)c4)cc23)c(NC2CCOCC2)c1", "note": "[Compound 500, N-(5-((3,5-difluorophenyl)amino)-1H-indol-3-yl)-4-((2-(dimethylamino)ethyl)(methyl)amino)-2-((tetrahydro-2H-pyran-4-yl)amino)benzamide]", "IC50": 3.57},
      {"smiles": "CCN(CCN(C)C)c1ccc(Nc2nc(-c3c[nH]c4cc(F)ccc34)ncc2C(F)(F)F)cc1NC(C)=O", "note": "[Compound 331b, N-(2-((2-(dimethylamino)ethyl)(ethyl)amino)-5-((2-(6-fluoro-1H-indol-3-yl)-5-(trifluoromethyl)pyrimidin-4-yl)amino)phenyl)acetamide]", "IC50": 2.02},
      {"smiles": "CCN(CCN(C)C)c1ccc(Nc2ncc(C(F)(F)F)c(-c3cn(C)c4ccccc34)n2)cc1N", "note": "[Compound 310, N^1-(2-(dimethylamino)ethyl)-N^1-ethyl-N^4-(4-(1-methyl-1H-indol-3-yl)-5-(trifluoromethyl)pyrimidin-2-yl)benzene-1,2,4-triamine]", "IC50": 0.305},
      {"smiles": "CCC(=O)Nc1cccc(Nc2ncc(F)c(Nc3ccc(N4CCN(C(C)=O)CC4)c(F)c3)n2)c1", "note": "[Compound 158, N-(3-((4-((4-(4-acetylpiperazin-1-yl)-3-fluorophenyl)amino)-5-fluoropyrimidin-2-yl)amino)phenyl)propionamide]", "IC50": "> 1"},
      {"smiles": "CN(C)[C@@H]1CCN(c2ccc(Nc3ncc(C(F)(F)F)c(-c4cn(C)c5c(F)cccc45)n3)cc2N)C1", "note": "[Compound R-354, (R)-4-(3-(dimethylamino)pyrrolidin-1-yl)-N^1-(4-(7-fluoro-1-methyl-1H-indol-3-yl)-5-(trifluoromethyl)pyrimidin-2-yl)benzene-1,3-diamine]", "IC50": 0.0691},
      {"smiles": "CN1CCN(c2ccc(C(=O)Nc3c[nH]c4ccc(Nc5cc(F)cc(F)c5)cc34)c(NC3CCOCC3)c2)CC1", "note": "[Compound 497, N-(5-((3,5-difluorophenyl)amino)-1H-indol-3-yl)-4-(4-methylpiperazin-1-yl)-2-((tetrahydro-2H-pyran-4-yl)amino)benzamide]", "IC50": 4.03},
      {"smiles": "COc1cccc2c(-c3nc(Nc4ccc(N(CCN(C)C)C(C)=O)c(NC(C)=O)c4)ncc3C(F)(F)F)cn(C)c12", "note": "[Compound 386, N-(2-acetamido-4-((4-(7-methoxy-1-methyl-1H-indol-3-yl)-5-(trifluoromethyl)pyrimidin-2-yl)amino)phenyl)-N-(2-(dimethylamino)ethyl)acetamide]", "IC50": 0.0439}
    ]}
  ]
}
